Where two headings read alike, the source gives them in different places.
Tests used:
[1] = test system: 6 Hz (44 mA) seizures, mice; experiment: 6 Hz (44 mA) seizure test; assay type: in vivo; details: Mus musculus, ip, pretreatment time 0.5 h
Source text: Both the aforementioned parameters (ED50 and TD50) enabled the calculation of protective indexes (PIs), which reflect the comparative the benefit–risk ratio of these experimental therapeutic agents.
Four mice per group were randomly assigned to each experimental group in the initial screening experiments (each mouse was used just once). Four groups, each with eight animals, received injections of different doses of the investigated substances in order to determine the ED50 or TD50 values. The PIs for the compounds investigated and reference ASMs were calculated by dividing the TD50 value, as determined in the chimney test by the respective ED50 value, as determined in the MES, scPTZ, or 6 Hz (32 mA or 44 mA) tests (PI = TD50/ED50). The PIs are a measure of the potential therapeutic window of the tested agent.
All substances were suspended in Tween 80 (1% aqueous solution) and administered i.p. as a single injection at a volume of 10 mL/kg. On each day of experimentation, fresh solutions were prepared.

[2] = test system: capsaicin-induced pain, mice; experiment: capsaicin-induced pain test; assay type: in vivo; details: Mus musculus, ip, 30 min before capsaicin
[3] = test system: STZ-induced tactile allodynia, mice; experiment: streptozotocin (STZ)-induced peripheral neuropathy, von Frey test; assay type: in vivo, mouse; details: 21 days after STZ
Source text: To test whether the compounds are active in the neuropathic pain resulting from another mechanism of neuronal injury, we tested them in streptozotocin (STZ)-induced neuropathy. STZ is the commonly used experimental model to induce diabetic neuropathy. Streptozotocin is toxic to insulin-producing beta cells in the pancreas and selectively damages these cells, leading to insulin deficiency, which subsequently results in chronic hyperglycemia. Hyperglycemia is a major factor in the development of diabetic neuropathy. Elevated blood glucose levels increase its uptake by nerve cells, which results in metabolic and oxidative stress. Moreover, hyperglycemia leads to the formation of advanced glycation end products (AGEs), which are abnormal protein structures. AGEs can accumulate in neuronal tissue and contribute to nerve dysfunction.[63] […] Additionally, STZ-induced neuropathic pain may also involve alterations in the levels of neurotransmitters such as glutamate and GABA.[64],[65]
Each animal was tested only once. […] Behavioral measurements were observed by trained observers.

TRPA1 (h) = biological target: T1, TRPA1 (h) (Homo sapiens, UniProt O75762); experiment: TRPA1 (h) cell based antagonist calcium flux assay; details: HEK293, human recombinant HEK-293 cell, read-out: % inhibition of control agonist response
T1 construct: Eurofins
T1 sequence (O75762 whole entry): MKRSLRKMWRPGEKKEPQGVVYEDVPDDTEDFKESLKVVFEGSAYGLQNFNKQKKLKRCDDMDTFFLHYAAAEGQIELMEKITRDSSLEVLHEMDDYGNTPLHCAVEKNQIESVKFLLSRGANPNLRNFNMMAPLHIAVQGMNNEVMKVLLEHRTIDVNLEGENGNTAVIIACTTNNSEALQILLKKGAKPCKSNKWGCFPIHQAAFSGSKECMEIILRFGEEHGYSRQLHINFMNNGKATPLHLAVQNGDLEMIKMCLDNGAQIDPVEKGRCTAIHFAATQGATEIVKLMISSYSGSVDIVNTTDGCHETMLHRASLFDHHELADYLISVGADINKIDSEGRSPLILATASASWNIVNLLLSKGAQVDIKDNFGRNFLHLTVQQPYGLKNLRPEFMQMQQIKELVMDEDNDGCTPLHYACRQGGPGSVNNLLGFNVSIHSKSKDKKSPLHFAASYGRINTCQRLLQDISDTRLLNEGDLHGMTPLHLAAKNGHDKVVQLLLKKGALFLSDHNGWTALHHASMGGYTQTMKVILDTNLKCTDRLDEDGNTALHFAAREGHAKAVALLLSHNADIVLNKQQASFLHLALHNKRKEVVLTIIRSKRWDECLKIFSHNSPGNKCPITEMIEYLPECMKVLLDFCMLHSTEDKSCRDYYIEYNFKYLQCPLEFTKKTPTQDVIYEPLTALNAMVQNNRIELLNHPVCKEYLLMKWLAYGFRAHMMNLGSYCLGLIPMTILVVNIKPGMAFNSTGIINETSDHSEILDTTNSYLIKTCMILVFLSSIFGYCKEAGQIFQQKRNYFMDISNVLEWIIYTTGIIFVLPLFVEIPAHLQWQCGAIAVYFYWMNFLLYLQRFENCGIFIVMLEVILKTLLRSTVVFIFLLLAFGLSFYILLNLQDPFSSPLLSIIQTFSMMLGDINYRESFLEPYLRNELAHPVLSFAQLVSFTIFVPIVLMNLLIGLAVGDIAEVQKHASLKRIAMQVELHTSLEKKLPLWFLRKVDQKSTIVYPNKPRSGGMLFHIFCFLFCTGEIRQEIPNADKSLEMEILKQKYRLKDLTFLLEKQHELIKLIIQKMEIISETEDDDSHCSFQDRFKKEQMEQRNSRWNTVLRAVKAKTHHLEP
Description: Using previously described testing methodologies, binding/functional tests were conducted on a commercial basis at Eurofins Laboratories (Poitiers, France) and Eurofins Panlabs Discovery Services Taiwan, Ltd. (New Taipei City, Taiwan); see Table S9 for more information.
Table S9. Radioligand binding and functional assays. […]
TRPA1 (h) transient potential ion channel cell based antagonist calcium flux assay […]
Assays were performed commercially in Eurofins Laboratories (Poitiers, France) or Eurofins Panlabs Discovery Services
Taiwan, Ltd. (New Taipei City, Taiwan).

[4] = biological target: T2, Voltage-Gated Sodium channel hNav1.6 (Homo sapiens, UniProt Q9UQD0); experiment: human sodium ion channel cell based automated patch clamp assay, hNav1.6
T2 construct: Eurofins Discovery (St. Charles, MO, USA)
T2 sequence (Q9UQD0 whole entry): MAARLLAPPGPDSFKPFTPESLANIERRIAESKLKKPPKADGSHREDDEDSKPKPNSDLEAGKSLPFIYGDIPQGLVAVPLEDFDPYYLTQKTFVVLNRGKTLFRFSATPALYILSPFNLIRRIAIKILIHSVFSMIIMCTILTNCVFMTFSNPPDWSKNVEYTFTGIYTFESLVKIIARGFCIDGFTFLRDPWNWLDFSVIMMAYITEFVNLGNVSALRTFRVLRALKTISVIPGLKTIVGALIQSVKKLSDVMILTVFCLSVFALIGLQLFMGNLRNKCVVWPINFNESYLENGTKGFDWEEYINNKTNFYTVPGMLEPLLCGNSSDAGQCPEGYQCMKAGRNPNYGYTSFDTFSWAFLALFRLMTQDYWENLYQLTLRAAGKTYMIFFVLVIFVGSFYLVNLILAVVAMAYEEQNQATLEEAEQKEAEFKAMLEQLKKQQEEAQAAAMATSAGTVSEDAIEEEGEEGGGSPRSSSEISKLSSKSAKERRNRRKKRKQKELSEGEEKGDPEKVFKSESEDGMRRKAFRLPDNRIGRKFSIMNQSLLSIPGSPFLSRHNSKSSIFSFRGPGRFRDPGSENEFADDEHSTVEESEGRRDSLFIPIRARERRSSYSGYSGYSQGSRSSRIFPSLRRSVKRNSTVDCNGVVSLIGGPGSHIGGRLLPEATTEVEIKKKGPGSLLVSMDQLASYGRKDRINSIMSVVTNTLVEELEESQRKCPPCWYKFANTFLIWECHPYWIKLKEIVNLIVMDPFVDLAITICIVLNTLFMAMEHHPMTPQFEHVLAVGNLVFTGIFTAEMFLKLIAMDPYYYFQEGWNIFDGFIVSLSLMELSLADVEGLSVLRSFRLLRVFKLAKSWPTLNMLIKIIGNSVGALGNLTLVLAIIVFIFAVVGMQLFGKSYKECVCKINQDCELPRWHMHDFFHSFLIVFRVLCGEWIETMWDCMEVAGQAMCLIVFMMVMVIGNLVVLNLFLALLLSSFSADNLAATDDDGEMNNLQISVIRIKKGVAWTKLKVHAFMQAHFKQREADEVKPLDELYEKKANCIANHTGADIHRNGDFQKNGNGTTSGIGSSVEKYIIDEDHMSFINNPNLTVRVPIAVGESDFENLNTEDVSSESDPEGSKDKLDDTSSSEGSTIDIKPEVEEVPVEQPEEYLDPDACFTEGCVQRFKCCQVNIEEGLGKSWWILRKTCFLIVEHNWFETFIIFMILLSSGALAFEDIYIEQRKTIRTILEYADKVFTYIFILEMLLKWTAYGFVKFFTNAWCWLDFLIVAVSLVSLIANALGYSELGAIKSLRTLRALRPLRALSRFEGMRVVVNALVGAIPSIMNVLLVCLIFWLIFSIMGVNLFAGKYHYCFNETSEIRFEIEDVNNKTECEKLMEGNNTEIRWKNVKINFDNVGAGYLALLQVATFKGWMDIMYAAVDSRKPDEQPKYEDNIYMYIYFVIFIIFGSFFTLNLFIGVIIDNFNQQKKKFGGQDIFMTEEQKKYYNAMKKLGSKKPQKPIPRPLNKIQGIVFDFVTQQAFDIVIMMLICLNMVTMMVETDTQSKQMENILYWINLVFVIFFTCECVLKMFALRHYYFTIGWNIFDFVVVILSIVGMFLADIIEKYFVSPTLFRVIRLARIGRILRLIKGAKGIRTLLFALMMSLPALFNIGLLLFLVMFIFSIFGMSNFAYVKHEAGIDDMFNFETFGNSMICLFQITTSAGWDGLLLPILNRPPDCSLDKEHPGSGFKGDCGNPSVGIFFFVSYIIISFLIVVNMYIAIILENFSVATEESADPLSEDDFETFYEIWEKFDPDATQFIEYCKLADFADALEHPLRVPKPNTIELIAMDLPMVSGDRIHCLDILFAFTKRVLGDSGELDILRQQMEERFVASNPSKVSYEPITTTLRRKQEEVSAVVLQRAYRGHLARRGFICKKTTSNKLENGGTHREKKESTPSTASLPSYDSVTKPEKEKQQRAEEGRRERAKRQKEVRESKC
Description: Therefore, as a part of the more detailed functional characterization using automated patch clamp method, we tested the influence of (R)-32 on sodium currents mediated by several Navx channels comprising 5 different human subunits, namely, Nav1.1, Nav1.2, Nav1.3, Nav1.6, and Nav1.7, which are involved in both seizure and/or pain modulation.[74],[80],[81] As summarized in Tables S4–S8, (R)-32 starting from 10 μM effectively and in concentration-dependent manner decreased sodium currents mediated by all aforementioned sodium channel subunits. Furthermore, (R)-32 appeared to bind exclusively to sodium channels that are in an inactivated state (see pulse 2 in Tables S4–S8), but not to the channels that are in an open state (pulse 1) (for additional details, see Supporting Information).
Human sodium ion channels cell based automated patch clamp assay
Human sodium ion channels cell based automated patch clamp assays: sodium channels exist in, a) a resting or closed state at -120 mV, b) a transient open state that inactivates to c) inactivated state at -10 mV. Sodium current inhibition within 1-2 ms of channel opening at 0 mV is open channel inhibition (pulse 1). In order to completely inactivate the sodium channels and facilitate inactivated state-dependent binding of the drug, the channels were kept at […] ( -10 mV) longer (pulsed for 500 ms) and then stepped back to -120 mV for 10 ms to recover from inactivation into resting or closed state (but the channels that had drug bound to them will not recover from inactivation and will not open) before stepping to -10 mV for 50 ms (pulse 2) to mea sure sodium channels that are available to open. The higher inhibition seen at pulse 2 is due to inactivated state -dependent inhibition. Pulse 1 and 2 are used to investigate drug binding to the open state and inactivated state of the Na channels, respectively. Each concentration of compound is applied for 5 minutes. The results obtained for (R)-32 are summerized in Tables S4–S8. […]
Compound Concentration Measurement % Inhibition
Data interpretation: Results showing inhibition greater than 50% are considered to represent significant effects of test compound and have been bolded for (R)-32 for better visualization. The studies were carried out in Eurofins Discovery (St. Charles, MO, USA).

[5] = biological target: T3, Voltage-Gated Sodium channel hNav1.7 (Homo sapiens, UniProt Q15858); experiment: human sodium ion channel cell based automated patch clamp assay, hNav1.7
T3 construct: Eurofins Discovery (St. Charles, MO, USA)
T3 sequence (Q15858 whole entry): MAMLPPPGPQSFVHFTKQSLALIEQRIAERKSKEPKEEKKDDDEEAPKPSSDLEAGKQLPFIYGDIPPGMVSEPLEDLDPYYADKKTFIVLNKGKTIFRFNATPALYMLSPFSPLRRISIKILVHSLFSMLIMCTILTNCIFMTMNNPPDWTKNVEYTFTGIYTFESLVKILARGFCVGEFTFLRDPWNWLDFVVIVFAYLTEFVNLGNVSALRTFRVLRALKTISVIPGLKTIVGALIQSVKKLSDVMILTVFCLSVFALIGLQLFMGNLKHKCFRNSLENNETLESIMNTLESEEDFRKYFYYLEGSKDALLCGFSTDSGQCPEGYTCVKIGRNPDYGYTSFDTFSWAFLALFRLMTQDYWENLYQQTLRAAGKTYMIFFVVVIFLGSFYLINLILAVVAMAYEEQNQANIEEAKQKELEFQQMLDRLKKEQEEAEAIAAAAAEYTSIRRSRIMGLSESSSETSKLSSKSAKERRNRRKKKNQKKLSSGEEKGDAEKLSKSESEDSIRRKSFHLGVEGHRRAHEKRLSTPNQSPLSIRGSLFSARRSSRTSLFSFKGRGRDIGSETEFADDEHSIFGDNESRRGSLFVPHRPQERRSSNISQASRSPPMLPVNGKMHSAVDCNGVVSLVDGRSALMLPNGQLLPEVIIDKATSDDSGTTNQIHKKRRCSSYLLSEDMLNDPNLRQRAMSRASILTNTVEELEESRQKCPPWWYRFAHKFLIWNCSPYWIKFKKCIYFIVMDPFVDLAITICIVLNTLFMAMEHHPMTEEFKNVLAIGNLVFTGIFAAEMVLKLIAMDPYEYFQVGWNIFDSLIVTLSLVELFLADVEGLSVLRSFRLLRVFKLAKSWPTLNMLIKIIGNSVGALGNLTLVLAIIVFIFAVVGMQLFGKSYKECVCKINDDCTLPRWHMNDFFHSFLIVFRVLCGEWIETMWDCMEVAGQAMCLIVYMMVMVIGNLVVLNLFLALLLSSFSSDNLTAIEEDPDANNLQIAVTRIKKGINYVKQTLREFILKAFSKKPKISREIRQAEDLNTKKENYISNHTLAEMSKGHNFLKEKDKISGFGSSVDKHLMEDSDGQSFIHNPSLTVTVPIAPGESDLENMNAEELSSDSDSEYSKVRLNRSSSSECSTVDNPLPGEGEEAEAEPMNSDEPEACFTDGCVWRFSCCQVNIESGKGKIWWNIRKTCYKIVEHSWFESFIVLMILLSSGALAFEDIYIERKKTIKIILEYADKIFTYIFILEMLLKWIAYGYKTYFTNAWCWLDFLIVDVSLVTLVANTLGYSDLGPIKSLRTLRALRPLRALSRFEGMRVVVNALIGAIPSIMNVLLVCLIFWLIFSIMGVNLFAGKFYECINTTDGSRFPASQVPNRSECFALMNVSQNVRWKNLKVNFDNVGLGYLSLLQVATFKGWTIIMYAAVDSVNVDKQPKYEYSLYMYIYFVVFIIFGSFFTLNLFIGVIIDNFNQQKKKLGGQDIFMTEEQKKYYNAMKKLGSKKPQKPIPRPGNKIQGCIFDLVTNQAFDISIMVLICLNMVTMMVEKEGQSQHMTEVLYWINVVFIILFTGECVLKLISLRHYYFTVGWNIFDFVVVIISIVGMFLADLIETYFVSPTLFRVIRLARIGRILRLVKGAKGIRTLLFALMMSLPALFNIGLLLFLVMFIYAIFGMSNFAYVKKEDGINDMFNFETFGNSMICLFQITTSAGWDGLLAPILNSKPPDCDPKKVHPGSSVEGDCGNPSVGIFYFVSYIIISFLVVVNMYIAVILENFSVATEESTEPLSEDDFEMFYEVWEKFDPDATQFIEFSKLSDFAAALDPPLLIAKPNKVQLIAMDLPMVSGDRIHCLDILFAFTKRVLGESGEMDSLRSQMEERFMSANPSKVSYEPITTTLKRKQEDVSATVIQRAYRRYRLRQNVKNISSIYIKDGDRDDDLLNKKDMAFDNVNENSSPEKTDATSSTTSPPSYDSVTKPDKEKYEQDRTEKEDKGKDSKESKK
Source text: Human sodium ion channels cell based automated patch clamp assays: sodium channels exist in, a) a resting or closed state at -120 mV, b) a transient open state that inactivates to c) inactivated state at -10 mV. Sodium current inhibition within 1-2 ms of channel opening at 0 mV is open channel inhibition (pulse 1). In order to completely inactivate the sodium channels and facilitate inactivated state-dependent binding of the drug, the channels were kept at open state ( -10 mV) longer (pulsed for 500 ms) and then stepped back to -120 mV for 10 ms to recover from inactivation into resting or closed
open) before stepping to -10 mV for 50 ms (pulse 2) to mea sure sodium channels that are available to open. […] Pulse 1 and 2 are used to investigate drug binding to the open state and inactivated state of the Na channels, respectively. Each concentration of compound is applied for 5 minutes.
Voltage-Gated Sodium channel hNav1.1

[6] = test system: OXPT-induced tactile allodynia, mice; experiment: oxaliplatin (OXPT)-induced peripheral neuropathy, von Frey test
Description: In experimental conditions, these mechanisms trigger mechanical allodynia, which can be observed as a decrease in the pain threshold, as assessed by the von Frey test.[37]
We tested (R)-31 at the doses of 50, 75, and 100 mg/kg (Figure 7C).
The experimental groups consisted of 10 adult male Albino Swiss mice (CD-1, 18–25 g). Each animal was tested only once. Immediately after the assay, the animals were sacrificed by cervical dislocation. Behavioral measurements were observed by trained observers. […] The tested materials were administered intraperitoneally half an hour before the test, after being suspended in a 1% aqueous solution of Tween-80. 30 min before the test, the animals in the control group (negative control) received an appropriate dose of the vehicle (Tween-80, 1% aqueous solution, i.p.).

[7] = hNav1.6, Pulse 1 (open state), read-out: % Inhibition Mean
[8] = hNav1.6, Pulse 1 (open state), read-out: % Inhibition n1
[9] = hNav1.6, Pulse 1 (open state), read-out: % Inhibition n2
[10] = hNav1.6, Pulse 2 (inactivated state), read-out: % Inhibition Mean
[11] = hNav1.6, Pulse 2 (inactivated state), read-out: % Inhibition n1
[12] = hNav1.6, Pulse 2 (inactivated state), read-out: % Inhibition n2
[13] = hNav1.7, Pulse 1 (open state), read-out: % Inhibition Mean
[14] = hNav1.7, Pulse 1 (open state), read-out: % Inhibition n1
[15] = hNav1.7, Pulse 1 (open state), read-out: % Inhibition n2
[16] = hNav1.7, Pulse 2 (inactivated state), read-out: % Inhibition Mean
[17] = hNav1.7, Pulse 2 (inactivated state), read-out: % Inhibition n1
[18] = hNav1.7, Pulse 2 (inactivated state), read-out: % Inhibition n2

In the case of `CC(=O)N[C@@H](C(=O)N1CCN(c2cccc(OC(F)(F)F)c2)CC1)c1ccccc1` [(R)-32, (R)-N-(2-Oxo-1-phenyl-2-(4-(3-(trifluoromethoxy)phenyl)piperazin-1-yl)ethyl)acetamide], the ED50 [1] is reported as 26.5 mg/kg, the ED50 [2] is reported as 20.2 mg/kg and the “pain threshold in STZ-induced neuropathy, % of the baseline” value ([3]; 25 mg/kg i.p.) is reported as 113%. The “pain threshold in STZ-induced neuropathy, % of the baseline” value ([3]; 50 mg/kg i.p.) was 120%, the “pain threshold in STZ-induced neuropathy, % of the baseline” value ([3]; 100 mg/kg i.p.) was 134% and the inhibition at 10 µM (TRPA1 (h)) was 9.6%. It also gave an inhibition at 1 µM [4, 7] of -5.14%, an inhibition at 1 µM [4, 8] of -8.4% and an inhibition at 1 µM [4, 9] of -1.89%. It also gave an inhibition at 10 µM [4, 7] of -10.8%, an inhibition at 10 µM [4, 8] of -14.4% and an inhibition at 10 µM [4, 9] of -7.25%. It also gave an inhibition at 100 µM [4, 7] of -0.11%, an inhibition at 100 µM [4, 8] of -1.89% and an inhibition at 100 µM [4, 9] of 1.68%. The inhibition at 1 µM [4, 10] was -4.59%, the inhibition at 1 µM [4, 11] was -10.1% and the inhibition at 1 µM [4, 12] was 0.93%. For the same molecule, the inhibition at 10 µM [4, 10] was 39.9%, the inhibition at 10 µM [4, 11] was 53% and the inhibition at 10 µM [4, 12] was 26.9%. It also gave an inhibition at 100 µM [4, 10] of 108%, an inhibition at 100 µM [4, 11] of 121% and an inhibition at 100 µM [4, 12] of 95.2%. It also gave an inhibition at 1 µM [5, 13] of -5.74%, an inhibition at 1 µM [5, 14] of -4.13% and an inhibition at 1 µM [5, 15] of -7.35%. The inhibition at 10 µM [5, 13] was 6.15%, the inhibition at 10 µM [5, 14] was -0.03% and the inhibition at 10 µM [5, 15] was 12.3%. It also gave an inhibition at 100 µM [5, 13] of 22.9%, an inhibition at 100 µM [5, 14] of 19.2% and an inhibition at 100 µM [5, 15] of 26.5%. It also gave an inhibition at 1 µM [5, 16] of -3.08%, an inhibition at 1 µM [5, 17] of -3.09% and an inhibition at 1 µM [5, 18] of -3.07%. For the same molecule, the inhibition at 10 µM [5, 16] was 37.8%, the inhibition at 10 µM [5, 17] was 35.3% and the inhibition at 10 µM [5, 18] was 40.4%. The inhibition at 100 µM [5, 16] was 98.4%, the inhibition at 100 µM [5, 17] was 98.7% and the inhibition at 100 µM [5, 18] was 98%. For the same molecule, the “pain threshold, early phase (3 h after OXPT), % of the baseline” value ([6]; 25 mg/kg i.p.) was 102%, the “pain threshold, late phase (7 days after OXPT), % of the baseline” value ([6]; 25 mg/kg i.p.) was 68% and the “pain threshold, early phase (3 h after OXPT), % of the initial value/baseline” value ([6]; 50 mg/kg i.p.) was 90%. The “pain threshold, late phase (7 days after OXPT), % of the baseline” value ([6]; 50 mg/kg i.p.) was 94%, the “pain threshold, early phase (3 h after OXPT), % of the initial value/baseline” value ([6]; 75 mg/kg i.p.) was 109% and the “pain threshold, late phase (7 days after OXPT), % of the baseline” value ([6]; 75 mg/kg i.p.) was 108%.

From PMC11378297, “Discovery and Profiling of New Multimodal Phenylglycinamide Derivatives as Potent Antiseizure and Antinociceptive Drug Candidates” (ACS Chemical Neuroscience, 2024)
